This passage reports melting point results from US8642601B2, “Inhibitors of JNK” (Roche Palo Alto LLC, priority 2010, dated 2014).

Molecules are shown by their SMILES. Structures can show the parent of a compound that is named as a salt. A value given as a limit tells only on which side of the number the result lay.

Usually melting point stands for the temperature of the solid-liquid transition. Regarding `CCN1CCN(C(=O)[C@H]2CC[C@H](Nc3nccc(-n4ccc5c(OCC6CCS(=O)(=O)C6)cccc54)n3)CC2)C[C@H]1C` (stereo partly drawn) (as salt: HCl) [Compound 3, (4-{4-[4-(1,1-Dioxo-tetrahydro-1λ^6-thiophen-3-ylmethoxy)-indol-1-yl]-pyrimidin-2-ylamino}-cyclohexyl)-((R)-4-ethyl-3-methyl-piperazin-1-yl)-methanone], the melting point is 225 °C. Regarding `CCN1CCN(C(=O)[C@H]2CC[C@H](Nc3nccc(-n4ccc5c(OCC6CCS(=O)(=O)C6)cccc54)n3)CC2)C[C@@H]1C` (stereo partly drawn) (as salt: HCl) [Compound 9, (4-{4-[4-(1,1-Dioxo-tetrahydro-1λ^6-thiophen-3-ylmethoxy)-indol-1-yl]-pyrimidin-2-ylamino}-cyclohexyl)-((S)-4-ethyl-3-methyl-piperazin-1-yl)-methanone], the melting point was 198 to 204 °C. Compound `CCCN1CC[C@@H](NC(=O)[C@H]2CC[C@H](Nc3nccc(-n4ccc5c(OCCCS(C)(=O)=O)cccc54)n3)CC2)C1` (as salt: HCl) [Compound 11, 4{4-[4-(3-Methanesulfonyl-propoxy)-indol-1-yl]-pyrimidin-2-ylamino}-cyclohexanecarboxylic acid ((R)-1-propyl-pyrrolidin-3-yl)-amide] came in with a melting point of 140 to 142 °C. Compound `CCN1CC[C@H](NC(=O)[C@H]2CC[C@H](Nc3nccc(-n4ccc5c(OCCCS(C)(=O)=O)cccc54)n3)CC2)C1` (as salt: HCl) [Compound 13, 4-{4-[4-(3-Methanesulfonyl-propoxy)-indol-1-yl]-pyrimidin-2-ylamino}-cyclohexanecarboxylic acid ((S)-1-ethyl-pyrrolidin-3-yl)-amide] registered a melting point of 160 to 162 °C.

The compound `CCN1CCC[C@@H](NC(=O)[C@H]2CC[C@H](Nc3nccc(-n4ccc5c(OCCCS(C)(=O)=O)cccc54)n3)CC2)C1` (as salt: HCl) [Compound 15, 4-{4-[4-(3-Methanesulfonyl-propoxy)-indol-1-yl]-pyrimidin-2-ylamino}-cyclohexanecarboxylic acid ((R)-1-ethyl-piperidin-3-yl)-amide] came in with a melting point of 180 to 185 °C.

In the case of `C[C@@H]1CN(C(=O)[C@H]2CC[C@H](Nc3nccc(-n4ncc5c(OCCCS(C)(=O)=O)cccc54)n3)CC2)CCN1` (as salt: HCl) [Compound 24, (4-{4-[4-(3-Methanesulfonyl-propoxy)-indazol-1-yl]-pyrimidin-2-ylamino}-cyclohexyl)-((R)-3-methyl-piperazin-1-yl)-methanone], the melting point was 245 to 250 °C. For `C[C@H]1CN(C(=O)[C@H]2CC[C@H](Nc3nccc(-n4ncc5c(OCC6CCS(=O)(=O)C6)cccc54)n3)CC2)CCN1` (stereo partly drawn) (as salt: HCl) [Compound 25, (4-{4-[4-(1,1-Dioxo-tetrahydro-1λ^6-thiophen-3-ylmethoxy)-indazol-1-yl]-pyrimidin-2-ylamino}-cyclohexyl)-((S)-3-methyl-piperazin-1-yl)-methanone], the melting point fell in the range of 245 to 250 °C. Turning to `CC1(C)CN(C(=O)[C@H]2CC[C@H](Nc3nccc(-n4ccc5c(OCC6CCS(=O)(=O)C6)cccc54)n3)CC2)CCN1` (stereo partly drawn) (as salt: HCl) [Compound 28, (3,3-Dimethyl-piperazin-1-yl)-(4-{4-[4-(1,1-dioxo-tetrahydro-1λ^6-thiophen-3-ylmethoxy)-indol-1-yl]-pyrimidin-2-ylamino}-cyclohexyl)-methanone], the melting point was over 300 °C.

For `CCN1CCCC(NC(=O)[C@H]2CC[C@H](Nc3nccc(-n4ccc5c(OCC6CCS(=O)(=O)C6)cccc54)n3)CC2)C1` (stereo partly drawn) (as salt: HCl) [Compound 29, 4-{4-[4-(1,1-Dioxo-tetrahydro-1λ^6-thiophen-3-ylmethoxy)-indol-1-yl]-pyrimidin-2-ylamino}-cyclohexanecarboxylic acid (1-ethyl-piperidin-3-yl)-amide], the melting point was in the range of 205 to 210 °C.
